Laboratory results as given in patent US10406243B2, “Methods of treatment comprising a polyrotaxane and medicinal composition” (National University Corporation Tokyo Medical and Dental …, priority 2013, dated 2019).

How the values were obtained:
[1] = tested on: NPC disease patient-derived cells; settings: cited from earlier work
[2] = tested on: NPC1 cells (human dermal fibroblasts derived from a Niemann-Pick type C disease patient); assay: Quantification of intracellular cholesterol accumulation, Amplex Red Cholesterol Assay Kit (Test Example 2); format: cell-based; settings: equivalent to 100 μM of cyclodextrin, 24 hours
Description: The quantification of the amount of intracellular cholesterol accumulation was carried out as follows.
After the incubation the cells were lysed with cell lysis buffer to obtain cell lysates, and the intracellular cholesterol was determined by Amplex Red Cholesterol Assay Kit (Invitrogen) while the total cellular protein content was determined with Micro BCA Protein Assay Kit (Thermo Fisher Scientific). The total intracellular cholesterol content is shown as total cholesterol content (nmol)/total protein content (mg).
In FIG. 9, in order from the left, the results on the following are shown: “the case where NPC1 cells were used and none of the samples were added (non-treated)”, “the case where NPC1 cells were used and HP-β-CD was added as a sample (HP-β-CD added)”, “the case where NPC1 cells were used and DM-β-CD was added as a sample (DM-β-CD added)”, “the case where NPC1 cells were used and HE-SS-PRX was added as a sample (HE-SS-PRX added)”, “the case where NPC1 cells were used and HE-ace-PRX was added as a sample (HE-ace-PRX added)”, “the case where NPC1 cells were used and HE-PRX was added as a sample (HE-PRX added)”, and “the case where NPC1 cells were used and HE-SS-PRX was added as a sample (HE-SS-PRX added)”, and “the case where NHDF cells were used and none of the samples were added (non-treated)”. The amount added of each sample is equivalent to 100 μM of cyclodextrin.

NPC1 cells [3] = assay: Fusion of autophagosomes and lysosomes, co-localization of mRFP-LC3 and LAMP1 (Test Example 11); format: cell-based, human; settings: 24 hours, HP-β-CD 10 mM, HEE-SS-PRX equivalent to 1 mM cyclodextrin
[4] = tested on: NPC disease patient-derived NPC2 mutant dermal fibroblasts; assay: LC3-II expression by Western blotting (Test Example 9); format: cell-based, human; settings: NPC2-mutated fibroblasts; HP-β-CD 10 mM, HEE-SS-PRX 1 mM
Description: (3) NPC disease patient-derived NPC2 mutant dermal fibroblasts (obtained from Coriell Institute; number: GM18455)
(§1) The cells were seeded on a 12-well plate (Nunc) (cell count: 1×10^5 cells/well), and incubated at 37° C. under a 5% CO2 atmosphere for one day, followed by the addition of the following samples and another 24-hour incubation.
(§2) After the culturing, the cells were washed with PBS, and then 150 μL of RIPA buffer (Wako) containing 1% protease inhibitor cocktail (Nacalai Tesque) and 1% Phosphatase inhibitor cocktail (Nacalai Tesque) was added, and the cells were lysed by shaking for 30 minutes. The cell lysate was centrifuged for 10 minutes at 15,000 rpm, and the supernatant was collected.
(§3) 10 μL of the supernatant and 2.5 μL of Laemmli buffer (Bio-Rad) were mixed, and applied to a 12% acrylamide gel. Then, electrophoresis was performed at 150∇ for 45 minutes. Then, proteins were transferred to a polyvinylidene fluoride (PVDF) membrane (Bio-Rad) using trans-blot Turbo Blotting System (Bio-Rad). Then, blocking was carried out with 5% skim milk solution (Wako) for an hour. […]
(§4) Each of the relative expression levels was determined from the intensity of Western blot band. […]

NPC1 cells [5] = assay: Observation of autolysosome formation, mRFP-EGFP-LC3 (Test Example 10); format: cell-based, human; settings: 24 hours, HP-β-CD 10 mM, HEE-SS-PRX equivalent to 1 mM cyclodextrin
NPC1 cells [6] = assay: LC3 and p62 expressions by Western blotting (Test Example 9); format: cell-based, human
Description: The expressions of LC3 and p62 in the following cells were assayed by Western blotting as follows.
as §1, §2
10 μL of the supernatant and 2.5 μL of Laemmli buffer (Bio-Rad) were mixed, and applied to a 12% acrylamide gel. Then, electrophoresis was performed at 150∇ for 45 minutes. Then, proteins were transferred to a polyvinylidene fluoride (PVDF) membrane (Bio-Rad) using trans-blot Turbo Blotting System (Bio-Rad). Then, blocking was carried out with 5% skim milk solution (Wako) for an hour.
After the blocking treatment, PVDF membranes were treated at 4° C. for one day with an antibody against LC3 which is an indicator of autophagy (purchased from MBL), an antibody against p62/SQSTM1 which is a selective autophagy substrate (purchased from MBL), and an anti-β-actin antibody (Sigma-Aldrich), each diluted with 1% skim milk solution.
After three washes with PBS, the PVDF membranes were treated for 1 hour at room temperature with HRP-conjugated goat anti-rabbit IgG diluted in 1% skim milk solution.
After three washes with PBS, the PVDF membranes were treated with Pierce Western Blotting Substrate, and the images were taken with ImageQuant LAS 500 system (GE Healthcare Bioscience).
For comparison, the following cases were also examined in a similar manner: a case where NHDF cells were used and none of the samples were added; a case where NHDF cells were used and Bafilomycin A1 (hereinafter, referred to as “Baf A”) was added instead of the sample; a case where NPC1 cells were used and none of the samples were added; and a case where NPC1 cells were used and Baf A was added instead of the sample.
as §4

NPC1 cells [7] = assay: Observation of autophagosomes by LC3 immunostaining (Test Example 8); format: cell-based, human; settings: 24 hours, HP-β-CD 10 mM, HEE-SS-PRX equivalent to 1 mM β-CD
Description: NPC1 cells were seeded on a 35 mm glass bottom dish (IWAKI) (cell count: 1.5×10^4 cells/dish), and incubated at 37° C. under a 5% CO2 atmosphere for one day, followed by the addition of the following samples and another 24-hour incubation.
After the culturing, the cells were fixed with 4% paraformaldehyde (Wako) for 10 minutes, treated with 50 μg/ml digitonin solution (Tokyo Chemical Industry) for 5 minutes to permeabilize the plasma membrane, and blocked with 1% BSA/PBS solution for 30 minutes.
The cells were then treated with Rabbit polyclonal anti-LC3 antibody (MBL) diluted to 1:200 with 1% BSA for one day at 4° C. After washing with PBS, the cells were stained with Alexa Fluor 488-conjugated goat anti-rabbit IgG (Abeam) (diluted to 1:1,000 with 1% BSA solution) for 30 minutes. After washing with PBS, the cells were observed by FluoView FV-10i (Olympus).
In FIG. 16E, in order from the left, the results on the following are shown: “the case where NHDF cells were used and none of the samples were added”, “the case where NPC1 cells were used and HP-β-CD was added as a sample (amount added: 10 mM)”, “the case where NPC1 cells were used and […] was added as a sample (amount added: amount equivalent to 1 mM concentration of β-CD on HEE-SS-PRX)”.

NPC1 cells [8] = assay: Cholesterol removal effect, dose-response (Test Examples 5, 6, 7-1); format: cell-based, human; settings: 24 hours, concentration as cyclodextrin
Description: Then, the cells were washed twice with phosphate-buffered solution, and 0.25% trypsin-EDTA solution (Gibco) was added to each well to peel the cells. The cells were collected into a 1.5 mL tube, and washed twice with phosphate buffered saline. Then, cell lysis solution (including 50 mM phosphate buffer solution, 500 mM sodium chloride, 25 mM cholic acid, and 0.5% Triton X-100) was added to each tube to lyse the cells.
In each cell lysate, the total cholesterol was quantified by Amplex Red Cholesterol Assay Kit (Invitrogen), and the total protein was quantified by micro BCA Protein Assay Kit (Thermo Fisher Scientific). The total cellular cholesterol content is shown as total cholesterol content (nmol)/total protein content (mg).
Similar assays to Test Example 5 were performed except that the following samples were used in order to investigate how the type of degradable linkage in polyrotaxane influences to cholesterol removal from NPC1.
Similar assays to Test Example 5 were performed except that the following samples were used in order to investigate how the type of functional group introduced into cyclodextrins in polyrotaxane influences to cholesterol removal from NPC1.

[9] = tested on: GM1 gangliosidosis patient-derived dermal fibroblasts; assay: LC3-II expression by Western blotting (Test Example 9); format: cell-based, human; settings: HP-β-CD 10 mM, HEE-SS-PRX 1 mM
Description: (5) GM1 gangliosidosis patient-derived dermal fibroblasts (obtained from Coriell Institute; number: GM03589)
as §1, §2, §3, §4

[10] = tested on: Npc1-deficient mice (Npc1−/− mice); settings: cited from earlier work
[11] = tested on: Fabry disease patient-derived dermal fibroblasts; assay: LC3-II expression by Western blotting (Test Example 9); format: cell-based, human; settings: HP-β-CD 10 mM, HEE-SS-PRX 1 mM
Description: (4) Fabry disease patient-derived dermal fibroblasts (obtained from Coriell Institute; number: GM00107)
as §1, §2, §3, §4

[12] = tested on: NPC1 cells (human dermal fibroblasts derived from a Niemann-Pick type C disease patient); assay: Accumulation of cholesterol, filipin staining observed by confocal microscope (Test Example 2); format: cell-based; settings: equivalent to 100 μM of cyclodextrin, 24 hours
Description: Normal human dermal fibroblasts (hereinafter, referred to as “NHDF” or “NHDF cells”; obtained from Coriell Institute; number: GM05659) and human dermal fibroblasts derived from a Niemann-Pick type C disease patient (hereinafter, referred to as “NPC1” or “NPC1 cells”; obtained from Coriell Institute; number: GM03123) were used as follows to examine the cellular accumulation of cholesterol.
After the incubation, the cells were fixed with 4% paraformaldehyde, and following the addition of filipin (Polysciences) in PBS adjusted to 100 μg/mL, were allowed to stand for 45 minutes at room temperature. After washing the cells three times with PBS, the localization of cholesterol was observed by using a confocal laser scanning microscope, FluoView FV10i (Olympus). Moreover, the amount of intracellular cholesterol accumulation was determined.
In each image, the part shown in white indicates cholesterol. The amount added of each sample is equivalent to 100 μM of cyclodextrin.

[13] = NHDF or NPC1 cells, Baf A added instead of the sample

Compound: Hydroxypropyl β-cyclodextrin [HP-β-CD]
- Amount of cholesterol in cells [1]: the amount of cholesterol in cells decreases
- Amount of intracellular cholesterol accumulation (total cholesterol/total protein) [2]: subtle reduction of cholesterol
- Co-localization rate of mRFP-LC3 and LAMP1 (NPC1 cells [3]): low
- LC3-II level [4]: increase in LC3-II
- Number of autolysosomes (NPC1 cells [5]): no change in the number of autolysosomes
- Number of autophagosomes (NPC1 cells [5]): increase in the number of autophagosomes
- Expression level of p62 (NPC1 cells [6]; NPC1 cells, 24 hours, 10 mM): significantly increased
- Expression level of LC3-II (NPC1 cells [6]; NPC1 cells, 24 hours, HP-β-CD 0.1 to 10 mM, HEE-SS-PRX 0.01 to 1 mM): increased the expression of LC3-II in a concentration dependent manner
- Number of LC3-positive vesicles in a cell (NPC1 cells [7]): further increased counts of LC3-positive vesicles
- Half maximal effective concentration (ED50) from dose-response curve for cholesterol accumulation (NPC1 cells [8]): 2.59 mM
- LC3-II level [9]: increase in LC3-II
- Amount of cholesterol accumulated in each tissue [10]: decreases the amount of cholesterol accumulated in each tissue
- Survival [10]: extends the survival
- LC3-II level [11]: increase in LC3-II

Compound: CO/C1=C\C(C)=C\[C@@H](C)[C@@H](O)[C@@H](C)C/C(C)=C/C=C/[C@H](OC)[C@@H]([C@@H](C)[C@@H](O)[C@H](C)[C@@]2(O)C[C@@H](O)[C@H](C)[C@@H](C(C)C)O2)OC1=O [Baf A, Bafilomycin A1]
- LC3 level (NPC1 cells [6]; [13]): significant increases
- p62 level (NPC1 cells [6]; [13]): significant increases

Compound: COC[C@H]1O[C@@H]2O[C@H]3[C@H](O)[C@@H](OC)[C@@H](O[C@H]4[C@H](O)[C@@H](OC)[C@@H](O[C@H]5[C@H](O)[C@@H](OC)[C@@H](O[C@H]6[C@H](O)[C@@H](OC)[C@@H](O[C@H]7[C@H](O)[C@@H](OC)[C@@H](O[C@H]8[C@H](O)[C@@H](OC)[C@@H](O[C@H]1[C@H](O)[C@H]2OC)O[C@@H]8COC)O[C@@H]7COC)O[C@@H]6COC)O[C@@H]5COC)O[C@@H]4COC)O[C@@H]3COC [DM-β-CD, 2,6-dimethyl-β-cyclodextrin]
- Amount of intracellular cholesterol accumulation (total cholesterol/total protein) [2]: capable of removing more cholesterol than HP-β-CD
- Half maximal effective concentration (ED50) from dose-response curve for cholesterol accumulation (NPC1 cells [8]): 0.23 mM
- Filipin fluorescence intensity (intracellular cholesterol) [12]: reduced
